Data taken from US7851436B2, “Inhibition of migration and induction of cell death by the type II collagen amino propeptides” (Washington University, priority 2007, dated 2010).
“Also recorded” adds a separate entry of the source.

Legend:
Ch-1 cells [1] = test: Internalization of propeptides (immunostaining); format: cell-based, human
Description: Ch-1 cells exposed to GST-PIIBNP and GST-PIIANP were immunostained with immunospecific antibodies. […] The internalization of PIIBNP may be exploited to target exogenous agents to cells expressing αVβ3 and αVβ5 integrins.

HUVEC cells = test: HUVEC cell death; format: cell-based, human
Method: FIG. 6 depicts photographs and graphs showing that PIIBNP inhibits angiogenesis. […] Quantification of tube formation was calculated based on branch points per field of view (FIG. 6C) for each treatment ranging from 0.1 μM to 10 μM of PIIBNP. […] GST (▴) and PIIANP (●) had no effect on the cells.
As a second test for angiogenesis, we tested the ability of PIIBNP to inhibit outgrowth of endogenous endothelial cells from freshly isolated rat aorta. […] In order to determine whether PIIBNP caused endothelial cell death, the number of HUVEC cells present after incubation with PIIBNP was determined (FIGS. 6E and 8). Tube formation was inhibited by 50% with 0.1 μM PIIBNP, with no cell death. […] Consequently, PIIBNP can inhibit angiogenesis in a cell line and in endogenous endothelial cells mediated by integrins αVβ3 and αVβ5.

Ch-1 cells [2] = test: Cell adhesion assay (Ch-1 cells on wells coated with recombinant proteins); format: cell-based, human; details: wells coated with recombinant protein
Method: Cell Adhesion Assay. Cell adhesion assays were performed using a spectrometric method. A 96-well plate was coated at 4° C. overnight with recombinant proteins. Wells were washed three times with RPMI-1640 medium containing 10% FBS. Ch-1 cells were harvested with limited trypsin digestion and plated at 5×10^4 cells per well in RPMI-1640 medium supplemented with 10% FBS for an hours. Proteins were added and incubation continued for 1 hour. The wells were washed three times with pre-warmed PBS to remove non-adherent cells. The adherent cells were fixed with 4% paraformaldehyde in PBS for 10 minutes at room temperature and stained with 0.5% toluidine blue for 5 minutes. The wells were rinsed with water and cells were solubilized with 0.1% SDS. Absorbance at 595 nm was recorded on a SpectraMax plate reader. Synthetic blocking peptides and antibodies to αVβ3 and αVβ5 integrin were pre-incubated with cells for 15 to 30 mins before they were added onto the wells in the inhibition assays.
Cell Culture. Human Chondrosarcoma cell line (Ch-1) was isolated from a portion of chondrosarcoma tumor (Chansky et al., J Orthop Res. (1998) 16(5):521-30). The Ch-1 cell line was maintained in RPMI-1640 supplemented with 10% FBS and at 37° C. in a humidified, 5% CO2 atmosphere.

[3] = system: FGF induced mouse cornea neovascularization; test: In vivo mouse cornea angiogenesis inhibition assay; details: Balb/c mice, osmotic pumps, one week
Method: FGF containing PolyHEMA pellets were implanted into the corneas of 6 week old Balb/c mice. The mice received osmotic pumps containing a number of proteins to measure the ability of each protein to inhibit angiogenesis. After one week the mice were sacrificed and angiogenesis was quantified based on the total vessel length seen from fluorescently labeled vessels.
To prepare a FGF Pellet (67 ng/quarter pellet) PBS (1 μl of 1×PBS pH 7.4), sucralfate (Sigma, #S0652)(1 μL of a 100 mg/mL suspension of sucralfate), Human FGF-2 (Peprotech, 100-1 8B)(1 μL of 3.2 mg/mL FGF-2), and poly-hema (poly(2-hydroxyethyl methacrylate), Sigma, P3932)(3 μL of 250 mg/mL poly-hema) were combined. Pellets (0.5 μL) were prepped on parafilm, air dried for 10-20 mins, and divided into quarters. The resulting pellets were sealed with parafilm and stored at −20° C. until needed.
To implant the pellet, a mouse was injected with Ketamine/Xylazine (about 0.1 mg KX/gram mouse, IP injection). […]
After one week the mice are injected with same amount of Ketamine given during the implantation procedure. […] Any remaining tissues will show up when the cornea is mounted and viewed with fluorescence. […] Angiogenesis is measured by total vessel outgrowth based on the fluorescently stained blood vessels using Metamorph software (FIG. 9).

HeLa 229 cells = test: Cell survival assay in HeLa 229 cells; format: cell-based, human
Method: Cell Culture. Human Chondrosarcoma cell line (Ch-1) was isolated from a portion of chondrosarcoma tumor. […] HUVEC cells were a gift from Dr. William Frazier (Washington University) and were cultured in M199 Earle's medium with 10 units/ml of penicillin, 5 μg/ml streptomycin and 0.25 μg/ml Fungizone supplemented with 10% FBS, 0.1 mg/ml L-glutamine, 25 mM Hepes, 16 units/ml of heparin (Sigma) and 0.1 mg/ml endothelial cell mitogen (Biochemical Technologies).
Detection of Cell Death. Cells were cultured to confluence in a 24-well plate pre-coated with type I collagen, fibronectin (Sigma), and ECM Matrigel (Becton Dickinson). Proteins in serum-free medium were added to the cells. Cells were monitored by light microscopy and images were digitally photographed using a Q capture Retiga 2000R camera. Quantification of cells remaining in the well was performed by washing with PBS for three times, fixing with 4% paraformaldehyde. The cells per field (×400) were counted for three field per well (3 wells per measurement). The mean number and standard deviation (SD) were calculated.

Ch-1 cells [4] = test: Migration of Ch-1 cells; format: cell-based, human; details: data not shown

**Q.** Which results are given for “PIIBNP: Recombinant human Type IIB procollagen NH2-propeptide (exons 3-8, lacking exon 2), expressed as GST fusion protein”?
**A.** internalization into cells (Ch-1 cells [1]): is internalized; colocalization with actin filaments (Ch-1 cells [1]; 30 minutes of exposure): colocalized with actin filaments; localization to the nucleus (Ch-1 cells [1]; 2 hours of exposure): localized to the nucleus; also recorded: colocalized with the nucleus; HUVEC cell death (HUVEC cells; 0.1 μM): no cell death; HUVEC cell death (HUVEC cells; 60 hrs, 37° C., higher concentrations): cell death was induced; also recorded: caused cell death in a concentration-dependent manner; adhesion to Ch-1 cells (Ch-1 cells [2]): shown to adhere; adhesion to Ch-1 cells (Ch-1 cells [2]; listed as GST-PIIBNP): strong binding; inhibition of angiogenesis (cornea neovascularization) ([3]; FGF pellets): inhibits angiogenesis in vivo; also recorded: suppression of neovascularization; toxicity [3]: no apparent toxicity; cell death (HeLa 229 cells; HeLa 229 cells, FIG. 4M): > 80%; survival (HeLa 229 cells; HeLa cells): 20%; inhibition of migration of Ch-1 cells (Ch-1 cells [4]): can inhibit migration
